US9686984B2, “Macrocyclic picolinamides as fungicides” (DOW AGROSCIENCES LLC, priority 2014, dated 2017)
Read-outs that look alike come from different tables or passages of the source.

Columns and labels:
Zymoseptoria tritici = assay: Leaf Blotch of Wheat (SEPTTR) disease control on wheat seedlings; assay type: in vivo; conditions: for pest or weed control at 121.5 g/ha: Low Volume (121.5 g/H); for pest or weed control at 100 µg/mL: High Volume (100 ppm)
Procedure: Example A: Evaluation of Fungicidal Activity: Leaf Blotch of Wheat (Mycosphaerella graminicola; Anamorph: Zymoseptoria tritici; Bayer code […]) Technical grades of materials were dissolved in acetone, which were then mixed with nine volumes of water containing 110 ppm Triton X-100. The fungicide solutions were applied onto wheat seedlings using an automated booth sprayer to run-off. All sprayed plants were allowed to air dry prior to further handling. All fungicides were evaluated using the aforementioned method for their activity vs. all target diseases, unless stated otherwise. Wheat leaf blotch and brown rust activity were also evaluated using track spray applications, in which case the fungicides were formulated as EC formulations, containing 0.1% Trycol 5941 in the spray solutions. Wheat plants (variety Yuma) were grown from seed in a greenhouse in 50% mineral soil/50% soil-less Metro mix until the first leaf was fully emerged, with 7-10 seedlings per pot. These plants were inoculated with an aqueous spore suspension of Septoria tritici either prior to or after fungicide treatments. After inoculation the plants were kept in 100% relative humidity (one day in a dark dew chamber followed by two to three days in a lighted dew chamber at 20° C.) to permit spores to germinate and infect the leaf. The plants were then transferred to a greenhouse set at 20° C. for disease to develop. When disease symptoms were fully expressed on the 1st leaves of untreated plants, infection levels were assessed on a scale of 0 to 100 percent disease severity. Percent disease control was calculated using the ratio of disease severity on treated plants relative to untreated plants.

Puccinia triticina = assay: Wheat Brown Rust (PUCCRT) disease control on wheat seedlings; assay type: in vivo; conditions: for pest or weed control at 121.5 g/ha: Low Volume (121.5 g/H); for pest or weed control at 100 µg/mL: High Volume (100 ppm)
Procedure: Technical grades of materials were dissolved in acetone, which were then mixed with nine volumes of water containing 110 ppm Triton X-100. The fungicide solutions were applied onto wheat seedlings using an automated booth sprayer to run-off. All sprayed plants were allowed to air dry prior to further handling. All fungicides were evaluated using the aforementioned method for their activity vs. all target diseases, unless stated otherwise. Wheat leaf blotch and brown rust activity were also evaluated using track spray applications, in which case the fungicides were formulated as EC formulations, containing 0.1% Trycol 5941 in the spray solutions. Wheat plants (variety Yuma) were grown from seed in a greenhouse in 50% mineral soil/50% soil-less Metro mix until the first leaf was fully emerged, with 7-10 seedlings per pot. These plants were inoculated with an aqueous spore suspension of Septoria tritici either prior to or after fungicide treatments. After inoculation the plants were kept in 100% relative humidity (one day in a dark dew chamber followed by two to three days in a lighted dew chamber at 20° C.) to permit spores to germinate and infect the leaf. The plants were then transferred to a greenhouse set at 20° C. for disease to develop. When disease symptoms were fully expressed on the 1st leaves of untreated plants, infection levels were assessed on a scale of 0 to 100 percent disease severity. Percent disease control was calculated using the ratio of disease severity on treated plants relative to untreated plants. Example B: Evaluation of Fungicidal Activity: Wheat Brown Rust (Puccinia triticina; Synonym: Puccinia recondita f. sp. tritici; Bayer code PUCCRT) Wheat plants (variety Yuma) were grown from seed in a greenhouse in 50% mineral soil/50% soil-less Metro mix until the first leaf was fully emerged, with 7-10 seedlings per pot. These plants were inoculated with an aqueous spore suspension of Puccinia triticina either prior to or after fungicide treatments. After inoculation the plants were kept in a dark dew room at 22° C. with 100% relative humidity overnight to permit spores to germinate and infect the leaf. The plants were then transferred to a greenhouse set at 24° C. for disease to develop. Fungicide formulation, application and disease assessment followed the procedures as described in the Example A.

[1] = 24 h, 1 Day Protectant, read-out: SEPTTR disease control, 1 DP
[2] = 72 h, 3 Day Curative, read-out: SEPTTR disease control, 3 DC
[3] = 24 h, 1 Day Protectant, read-out: PUCCRT disease control, 1 DP
[4] = 72 h, 3 Day Curative, read-out: PUCCRT disease control, 3 DC

Structure (SMILES) | pest or weed control at 121.5 g/ha (Zymoseptoria tritici; [1]) | pest or weed control at 121.5 g/ha (Zymoseptoria tritici; [2]) | pest or weed control at 121.5 g/ha (Puccinia triticina; [3]) | pest or weed control at 121.5 g/ha (Puccinia triticina; [4]) | pest or weed control at 100 µg/mL (Zymoseptoria tritici; [1]) | pest or weed control at 100 µg/mL (Zymoseptoria tritici; [2]) | pest or weed control at 100 µg/mL (Puccinia triticina; [3]) | pest or weed control at 100 µg/mL (Puccinia triticina; [4])
CCCC[C@H]1[C@H](C)OC(=O)[C@@H](NC(=O)c2nccc(OC)c2OCOC(C)=O)CCO[C@@H]1CCc1ccccc1 [Compound 31] | > 70% | > 70% | > 70% | > 70% |  |  |  | 
COCC[C@H]1OCC[C@H](NC(=O)c2nccc(OC)c2OC(C)=O)C(=O)O[C@@H](C)[C@@H]1Cc1ccc(F)cc1 [Compound 8] | > 70% | < 70% | > 70% | > 70% |  |  |  | 
CCOCC(=O)Oc1c(OC)ccnc1C(=O)N[C@H]1CCOC[C@@H](Cc2ccccc2)[C@H](C)OC1=O [Compound 48, 2-(((3R,4S,7S)-3-benzyl-4-methyl-6-oxo-1,5-dioxonan-7-yl)carbamoyl)-4-methoxypyridin-3-yl 2-ethoxyacetate] | < 70% | < 70% | > 70% | > 70% |  |  |  | 
COc1ccnc(C(=O)N[C@H]2CCO[C@H](CCc3ccccc3)[C@@H](Cc3ccc(F)cc3)[C@H](C)OC2=O)c1OCOC(C)=O [Compound 24, ((2-(((2R,3S,4S,7S)-3-(4-fluorobenzyl)-4-methyl-6-oxo-2-phenethyl-1,5-dioxonan-7-yl)carbamoyl)-4-methoxypyridin-3-yl)oxy)methyl acetate] | > 70% | > 70% | > 70% | > 70% |  |  |  | 
CCCC[C@H]1[C@H](C)OC(=O)[C@@H](NC(=O)c2nccc(OC)c2O)CCO[C@@H]1CCc1ccccc1 [Compound 64] |  |  |  |  | > 70% | > 70% | > 70% | > 70%
CCCC[C@H]1[C@H](C)OC(=O)[C@@H](NC(=O)c2nccc(OC)c2O)CCO[C@@H]1COc1ccccc1 [Compound 68] |  |  |  |  | > 70% | < 70% | > 70% | > 70%
CCCC[C@H]1OCC[C@H](NC(=O)c2nccc(OC)c2OC(C)=O)C(=O)O[C@@H](C)[C@@H]1Cc1ccc(F)cc1 [Compound 6] | > 70% | > 70% | > 70% | > 70% |  |  |  | 
COc1ccnc(C(=O)N[C@H]2CCO[C@H](CCc3ccccc3)[C@@H](Cc3ccc(F)cc3)[C@H](C)OC2=O)c1OCOC(=O)C(C)C [Compound 38] | > 70% | > 70% | > 70% | > 70% |  |  |  | 
CCOCC(=O)OCOc1c(OC)ccnc1C(=O)N[C@H]1CCOC[C@@H](Cc2ccccc2)[C@H](C)OC1=O [Compound 42, ((2-(((3R,4S,7S)-3-benzyl-4-methyl-6-oxo-1,5-dioxonan-7-yl)carbamoyl)-4-methoxypyridin-3-yl)oxy)methyl 2-ethoxyacetate] | > 70% | > 70% | > 70% | > 70% |  |  |  | 
CCCC[C@H]1[C@H](C)OC(=O)[C@@H](NC(=O)c2nccc(OC)c2OCOC(=O)COCC)CCO[C@@H]1CC [Compound 46] | > 70% | < 70% | > 70% | > 70% |  |  |  | 
CCCC[C@H]1OCC[C@H](NC(=O)c2nccc(OC)c2OCOC(C)=O)C(=O)O[C@@H](C)[C@@H]1Cc1ccc(F)cc1 [Compound 23] | > 70% | > 70% | > 70% | > 70% |  |  |  | 
